Test [1] concerns NCI-H1373 cancer cells. Kind of test: NCI-H1373 cancer cell growth inhibition (CellTiter-Glo, 144 hours). The test is classed as cell-based. The conditions noted are these: Homo sapiens, 144 hours culture. The protocol: Promega CellTiter-Glo cell activity assay kit (Item No.: Promege-G7573) was used to determine the cell activity. 90 μL NCI-H1373 cell suspension (ATCC, catalog No. CRL-5866, batch No. 58078716) was spread into the pores of the 96-well plate with 3500 cells per well. After 24 hours, the 10 μL prepared 10× compound working solution was added into the pores of the cell culture plate with a final concentration of 10 μM. 3.3333 μM, 1.1111 μM, 0.3704 μM, 0.1235 μM, 0.0412 μM, 0.0137 μM, 0.0046 μM, 0.0015 μM, 0.0005 μM, 10 μL DMSO was added to the solvent control, and the final concentration of DMSO was 0.2%. The 0-day plates were collected for analysis, and after 144 hours of culture, the growth condition of cells was detected according to the instructions of CellTiter-Glo cell activity assay kit. Add 50 μL of CellTiter-Glo working liquid into each hole of the cell culture plate, shake the plates in the dark for 2 minutes until cell lysis, and place at room temperature for 10 minutes to detect the luminous signal (RUL) of each cell hole on the 2104En Vision board reader.
Calculation formula: Growth inhibition rate %=(1−(RLU compound−RLU Day0)/(RLU solvent control−RLU Day0))*100%. The dose-response curves of each compound were fitted by GraphPad Prism 8 to obtain IC50 values.
For the matter, IC50 values less than 0.1 μM are labeled “+++”, values from 0.1 to 1 μM are labeled “++”, and values greater than 1 to 10 μM are labeled “+”.
(In general: ATP-based viability assays read luminescence as a measure of living cells.)

The target in test [2] is T1, recombinant human PARP7 protein (Homo sapiens, UniProt Q7Z3E1).
T1 construct: purchased Abcam ab271651
T1 sequence (Q7Z3E1 1-657): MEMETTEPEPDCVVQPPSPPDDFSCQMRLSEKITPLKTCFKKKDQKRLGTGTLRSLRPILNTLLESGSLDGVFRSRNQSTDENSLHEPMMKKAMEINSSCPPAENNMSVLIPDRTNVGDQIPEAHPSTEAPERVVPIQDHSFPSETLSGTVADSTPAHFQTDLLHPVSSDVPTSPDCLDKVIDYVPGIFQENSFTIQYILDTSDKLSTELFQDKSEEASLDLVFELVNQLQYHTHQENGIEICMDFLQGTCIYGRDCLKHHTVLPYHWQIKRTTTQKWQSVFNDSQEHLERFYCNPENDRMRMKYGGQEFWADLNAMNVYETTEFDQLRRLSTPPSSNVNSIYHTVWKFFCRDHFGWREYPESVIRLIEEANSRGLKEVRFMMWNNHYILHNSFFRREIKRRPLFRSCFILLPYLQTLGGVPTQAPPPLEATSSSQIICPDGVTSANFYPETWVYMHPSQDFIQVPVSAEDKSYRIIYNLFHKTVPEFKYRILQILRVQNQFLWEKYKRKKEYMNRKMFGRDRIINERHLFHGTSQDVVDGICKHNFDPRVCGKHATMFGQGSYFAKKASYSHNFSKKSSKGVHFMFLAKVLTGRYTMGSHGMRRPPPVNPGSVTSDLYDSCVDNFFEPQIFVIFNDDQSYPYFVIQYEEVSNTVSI
Kind of test: Inhibition of PARP7 biological enzyme activity (histone-coated plate, Biotin-NAD+, chemiluminescence). The test is classed as biochemical. The conditions noted are these: recombinant human PARP7, Biotin-NAD+ substrate. The protocol:
The recombinant human PARP7 protein kit (Abcam, catalog number ab271651) was used for the assay. According to the kit instructions, 30 μL of histone coating solution (1.5 μg/mL) was first applied to the 384 well holes of the reaction plate and coated at 4° C. for 2 hours. Then, the histone coated solution was washed off, and 50 μL sealing buffer was added to each well, and the sealing buffer was washed off after incubation at 25° C. for 60 minutes. 1000 times the concentration of the compound was 10 configured and diluted from 1 mM to 0.05 μM, and the configured compound was transferred to 384-well plates with 25 nL per well using Echo. The final concentration of the compound in the reaction system was 1000 nM, 333.33 nM, 111.11 nM, 37.03 nM, 12.34 nM, 4.11 nM, 1.37 nM, 0.45 nM, 0.15 nM, 0.05 nM, which was used as the test hole. At the same time, 25 nL DMSO was added to the negative control well and the positive control well. The PARP7 enzyme solution with a concentration of 1.67 times was prepared, and the PARP7 enzyme solution was added to the test hole and the positive control hole with 15 μL each, while the negative control hole was added with 15 μL base Buffer, and incubated at 25° C. for 15 minutes. Then 10 μL 2.5 times Biotin-NAD+ substrate solution was added and incubated at 25° C. for 60 min. After the reaction solution was washed off, the 384-well reaction plates were treated with closed buffer solution diluted with streptavidin-HRP (1:500), each well was 30 μL, and incubated at 25° C. for 30 min. After the HRP buffer was washed off, 30 μL HRP chemiluminescent substrate mixture was added to each well, and the luminescence signal (RLU) of each well was detected by Envision. Calculation formula: Inhibition rate %=(average positive control-RLU compound)/(average positive control-average negative control))*100%. The dose-response curves of each compound were fitted by GraphPad Prism 8 to get IC50 values. IC50 values less than 0.01 μM are labeled as “+++”, IC50 values from 0.01 to 0.1 µM are labeled as “++”, and IC50 values greater than 0.1 to 10.0 μM are labeled as “+”.

A word on the IC50: it is the concentration at which inhibition is half-maximal. Regarding `C[C@@H](CO/N=C/C(=O)N1CCN(c2ncc(C(F)(F)F)cn2)CC1)Nc1cn[nH]c(=O)c1C(F)(F)F` [Example 15, (S,E)-2-oxo-2-(4-(5-(trifluoromethyl)pyrimidin-2-yl)piperazin-1-yl)acetaldehyde O-(2-((6-oxo-5-(trifluoromethyl)-1,6-dihydropyridazin-4-yl)amino)propyl) oxime], the IC50 is 100 to 1000 nM in test [1] and below 10 nM in test [2].
Taken in the same sequence, the figures for `C[C@@H](CONC(=O)CC1CCN(c2ncc(C(F)(F)F)cn2)CC1F)Nc1cn[nH]c(=O)c1C(F)(F)F` (stereo partly drawn) [Example 53, 2-(3-fluoro-1-(5-(trifluoromethyl)pyrimidin-2-yl)piperidin-4-yl)-N—((S)-2-((6-oxo-5-(trifluoromethyl)-1,6-dihydropyridazin-4-yl)amino)propoxy)acetamide] were 100 to 1000 nM and below 10 nM.
Taken in the same sequence, the figures for `C[C@@H](/C=N/OCCC1CCN(c2ncc(C(F)(F)F)cn2)CC1)Nc1cn[nH]c(=O)c1C(F)(F)F` [Example 14, (S,E)-2-((6-oxo-5-(trifluoromethyl)-1,6-dihydropyridazin-4-yl)amino)propanal O-(2-(1-(5-(trifluoromethyl)pyrimidin-2-yl)piperidin-4-yl)ethyl) oxime] were 1000 to 10000 nM and below 10 nM.
For the molecule `CC1=C(CC(=O)NOC[C@H](C)Nc2cn[nH]c(=O)c2C(F)(F)F)CCN(c2ncc(-c3ccccc3F)cn2)C1` [Example 28, (S)-2-(1-(5-(2-fluorophenyl)pyrimidin-2-yl)-5-methyl-1,2,3,6-tetrahydropyridin-4-yl)-N-(2-((6-oxo-5-(trifluoromethyl)-1,6-dihydropyridazin-4-yl)amino)propoxy)acetamide], the IC50 in test [1] was 100 to 1000 nM; in test [2], below 10 nM.
Taken in the same sequence, the figures for `C[C@@H](CONC(=O)CC1CCN(c2ncc3cc[nH]c3n2)CC1)Nc1cn[nH]c(=O)c1C(F)(F)F` [Example 38, (S)-2-(1-(7H-pyrrolo(2,3-d)pyrimidin-2-yl)piperidin-4-yl)-N-(2-((6-oxo-5-(trifluoromethyl)-1,6-dihydropyridazin-4-yl)amino)propoxy)acetamide] were 100 to 1000 nM and below 10 nM.
Taken in the same sequence, the figures for `C[C@@H](CONC(=O)C(F)C1CCN(c2ncc(C(F)(F)F)cn2)CC1)Nc1cn[nH]c(=O)c1C(F)(F)F` (some centres unmarked) [Example 48] were below 100 nM and below 10 nM.
For `CC1CN(c2ncc(C3CC3)cn2)CC=C1CC(=O)NOC[C@H](C)Nc1cn[nH]c(=O)c1C(F)(F)F` (stereo partly drawn) [Example 30, 2-(1-(5-cyclopropylpyrimidin-2-yl)-3-methyl-1,2,3,6-tetrahydropyridin-4-yl)-N—((S)-2-((6-oxo-5-(trifluoromethyl)-1,6-dihydropyridazin-4-yl)amino)propoxy)acetamide], in that order: below 100 nM and below 10 nM.
`O=C(CO/N=C/[C@@H](Nc1cn[nH]c(=O)c1C(F)(F)F)C1CC1)N1CCN(c2ncc(C(F)(F)F)cn2)CC1` [Example 10, (S,E)-2-cyclopropyl-2-((6-oxo-5-(trifluoromethyl)-1,6-dihydropyridazin-4-yl)amino)acetaldehyde O-(2-oxo-2-(4-(5-(trifluoromethyl)pyrimidin-2-yl)piperazin-1-yl)ethyl) oxime]: the IC50 in test [1] is 100 to 1000 nM; in test [2], below 10 nM.
Taken in the same sequence, the figures for `C[C@@H]1CN(c2ccc(C#N)cn2)CCN1C(=O)CO/N=C/[C@H](C)Nc1cn[nH]c(=O)c1C(F)(F)F` [Example 13, 6-((R)-3-methyl-4-(2-(((E)-((S)-2-((6-oxo-5-(trifluoromethyl)-1,6-dihydropyridazin-4-yl)amino)propylidene)amino)oxy)acetyl)piperazin-1-yl)nicotinonitrile] were 1000 to 10000 nM and below 10 nM.
Taken in the same sequence, the figures for `C[C@@H](CONC(=O)C(F)C1=CCN(c2ncc(C(F)(F)F)cn2)CC1)Nc1cn[nH]c(=O)c1C(F)(F)F` (stereo partly drawn) [Example 22, 2-fluoro-N—((S)-2-((6-oxo-5-(trifluoromethyl)-1,6-dihydropyridazin-4-yl)amino)propoxy)-2-(1-(5-(trifluoromethyl)pyrimidin-2-yl)-1,2,3,6-tetrahydropyridin-4-yl) acetamide] were below 100 nM and below 10 nM.
For the molecule `C[C@@H](CONC(=O)/C=C1/CCN(c2ncc(C(F)(F)F)cn2)CC1F)Nc1cn[nH]c(=O)c1C(F)(F)F` (stereo partly drawn) [Example 24, (Z)-2-(3-fluoro-1-(5-(trifluoromethyl)pyrimidin-2-yl)piperidin-4-ylidene)-N—((S)-2-((6-oxo-5-(trifluoromethyl)-1,6-dihydropyridazin-4-yl)amino)propoxy)acetamide], the IC50 in test [1] was 100 to 1000 nM; in test [2], below 10 nM.
With `CC(=O)c1c(N[C@@H](C)CONC(=O)CC2CCN(c3ncc(C(F)(F)F)cn3)CC2)cn[nH]c1=O` [Example 36, (S)—N-(2-((5-acetyl-6-oxo-1,6-dihydropyridazin-4-yl)amino)propoxy)-2-(1-(5-(trifluoromethyl)pyrimidin-2-yl)piperidin-4-yl)acetamide], the results for the concentration for half-maximal inhibition (IC50) in test [1] and in test [2] were below 100 nM and below 10 nM, respectively.
For `C[C@@H](CONC(=O)CC1CCN(c2ncc3cc(F)ccc3n2)CC1)Nc1cn[nH]c(=O)c1C(F)(F)F` [Example 39, (S)-2-(1-(6-fluoroquinazolin-2-yl)piperidin-4-yl)-N-(2-((6-oxo-5-(trifluoromethyl)-1,6-dihydropyridazin-4-yl)amino)propoxy)acetamide], in that order: 100 to 1000 nM and below 10 nM.
For the molecule `C[C@@H](CN(C)OCC(=O)N1CCN(c2ncc(C(F)(F)F)cn2)CC1)Nc1cn[nH]c(=O)c1C(F)(F)F` [Example 2, (S)-5-((1-(methyl(2-oxo-2-(4-(5-(trifluoromethyl)pyrimidin-2-yl)piperazin-1-yl)ethoxy)amino)propan-2-yl)amino)-4-(trifluoromethyl)pyridazin-3(2H)-one], the IC50 in test [2] was below 10 nM.
Same read-out and setting: the result for `C/C(=N\OCC(=O)N1CCN(c2ncc(C(F)(F)F)cn2)CC1)[C@H](C)Nc1cn[nH]c(=O)c1C(F)(F)F` [Example 8, (S,E)-5-((3-((2-oxo-2-(4-(5-(trifluoromethyl)pyrimidin-2-yl)piperazin-1-yl)ethoxy)imino)butan-2-yl)amino)-4-(trifluoromethyl)pyridazin-3(2H)-one] reads 10 to 100 nM; that for `C[C@@H](CNOCC(=O)N1CCN(c2ncc(C(F)(F)F)cn2)CC1)Nc1cn[nH]c(=O)c1C(F)(F)F` [Example 1, (S)-5-((1-((2-oxo-2-(4-(5-(trifluoromethyl)pyrimidin-2-yl)piperazin-1-yl)ethoxy)amino)propan-2-yl)amino)-4-(trifluoromethyl)pyridazin-3(2H)-one], below 10 nM.
